Data set [1] addresses KCNQ1 (Homo sapiens, UniProt P51787). In words: Selectivity interaction (Panel of kinases, GPCRs, ion channels and transporters (enzymatic assay)) EUB0000266bCl KCNQ1.
Data set [2] addresses Protein kinase C eta type (Homo sapiens) (UniProt P24723). In words: Selectivity interaction (ProQinase) EUB0000171b PRKCH.
Data set [3] addresses T1, Membrane-associated tyrosine- and threonine-specific cdc2-inhibitory kinase (Homo sapiens) (UniProt Q99640).
T1 sequence (whole entry): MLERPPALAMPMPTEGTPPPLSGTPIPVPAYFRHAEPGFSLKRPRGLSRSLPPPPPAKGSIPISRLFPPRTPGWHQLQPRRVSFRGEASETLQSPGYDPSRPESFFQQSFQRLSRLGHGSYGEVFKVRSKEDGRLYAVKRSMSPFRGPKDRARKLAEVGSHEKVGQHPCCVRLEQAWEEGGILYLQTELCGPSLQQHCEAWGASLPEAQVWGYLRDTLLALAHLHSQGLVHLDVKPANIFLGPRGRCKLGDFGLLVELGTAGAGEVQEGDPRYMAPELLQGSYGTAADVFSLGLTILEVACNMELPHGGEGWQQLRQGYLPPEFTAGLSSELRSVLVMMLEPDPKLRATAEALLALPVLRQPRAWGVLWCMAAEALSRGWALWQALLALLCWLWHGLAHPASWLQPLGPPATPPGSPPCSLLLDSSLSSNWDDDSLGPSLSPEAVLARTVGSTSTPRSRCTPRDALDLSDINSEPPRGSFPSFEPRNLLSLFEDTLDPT
Briefly: Selectivity interaction (ProQinase) EUB0000171b PKMYT1.

In data set [4] the target is Calcium/calmodulin-dependent protein kinase type II subunit beta (Homo sapiens) (UniProt Q13554). Conditions: at 10 µM.
Chain of Calcium/calmodulin-dependent protein kinase type II subunit beta (Homo sapiens) (Q13554 whole entry): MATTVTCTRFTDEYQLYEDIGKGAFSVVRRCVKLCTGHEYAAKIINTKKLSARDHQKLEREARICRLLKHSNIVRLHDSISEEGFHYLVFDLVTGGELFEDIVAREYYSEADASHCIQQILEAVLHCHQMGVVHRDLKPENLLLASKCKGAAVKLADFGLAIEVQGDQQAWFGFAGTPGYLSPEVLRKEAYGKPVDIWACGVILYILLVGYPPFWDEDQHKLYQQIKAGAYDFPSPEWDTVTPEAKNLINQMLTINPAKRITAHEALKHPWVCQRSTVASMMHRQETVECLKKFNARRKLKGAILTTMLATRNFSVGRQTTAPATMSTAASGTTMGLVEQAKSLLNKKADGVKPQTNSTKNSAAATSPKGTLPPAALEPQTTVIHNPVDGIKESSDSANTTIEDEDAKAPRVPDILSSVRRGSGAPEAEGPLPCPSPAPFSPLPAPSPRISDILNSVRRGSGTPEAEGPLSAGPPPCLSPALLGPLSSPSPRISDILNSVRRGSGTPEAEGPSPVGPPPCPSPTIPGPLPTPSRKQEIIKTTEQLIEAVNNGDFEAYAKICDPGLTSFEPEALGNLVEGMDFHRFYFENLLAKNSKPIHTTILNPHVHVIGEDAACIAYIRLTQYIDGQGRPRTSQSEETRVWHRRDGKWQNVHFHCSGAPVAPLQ
In data set [5] the target is Fibroblast growth factor receptor 2 (Homo sapiens) (UniProt P21802). Briefly: Selectivity interaction (KinomeScan (DiscoverX)) EUB0001079a FGFR2. Conditions: at 1 µM.
Chain of Fibroblast growth factor receptor 2 (Homo sapiens) (P21802 22-821 limits assumed): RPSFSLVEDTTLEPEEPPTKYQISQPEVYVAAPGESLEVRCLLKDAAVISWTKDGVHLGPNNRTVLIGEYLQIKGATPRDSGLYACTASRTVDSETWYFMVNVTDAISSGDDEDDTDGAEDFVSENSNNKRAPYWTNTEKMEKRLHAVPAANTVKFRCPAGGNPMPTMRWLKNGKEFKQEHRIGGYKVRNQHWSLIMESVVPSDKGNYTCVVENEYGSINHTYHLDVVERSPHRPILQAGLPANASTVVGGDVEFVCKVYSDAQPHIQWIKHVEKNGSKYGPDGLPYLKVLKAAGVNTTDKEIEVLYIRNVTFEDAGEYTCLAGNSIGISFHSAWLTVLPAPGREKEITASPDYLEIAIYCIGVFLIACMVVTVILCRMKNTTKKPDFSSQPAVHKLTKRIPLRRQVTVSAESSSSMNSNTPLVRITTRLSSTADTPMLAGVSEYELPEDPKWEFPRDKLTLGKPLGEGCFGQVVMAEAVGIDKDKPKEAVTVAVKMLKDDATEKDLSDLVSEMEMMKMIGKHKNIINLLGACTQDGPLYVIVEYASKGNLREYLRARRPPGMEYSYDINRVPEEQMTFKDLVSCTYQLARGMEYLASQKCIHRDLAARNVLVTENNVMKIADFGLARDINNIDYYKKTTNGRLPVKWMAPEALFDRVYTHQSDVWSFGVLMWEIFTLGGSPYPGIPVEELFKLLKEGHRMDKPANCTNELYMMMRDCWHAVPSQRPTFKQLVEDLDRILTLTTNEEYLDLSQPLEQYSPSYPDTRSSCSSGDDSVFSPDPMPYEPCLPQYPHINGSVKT
The target in data set [6] is T2, TGF-beta receptor type-1 (Homo sapiens) (UniProt P36897).
T2 sequence (whole entry): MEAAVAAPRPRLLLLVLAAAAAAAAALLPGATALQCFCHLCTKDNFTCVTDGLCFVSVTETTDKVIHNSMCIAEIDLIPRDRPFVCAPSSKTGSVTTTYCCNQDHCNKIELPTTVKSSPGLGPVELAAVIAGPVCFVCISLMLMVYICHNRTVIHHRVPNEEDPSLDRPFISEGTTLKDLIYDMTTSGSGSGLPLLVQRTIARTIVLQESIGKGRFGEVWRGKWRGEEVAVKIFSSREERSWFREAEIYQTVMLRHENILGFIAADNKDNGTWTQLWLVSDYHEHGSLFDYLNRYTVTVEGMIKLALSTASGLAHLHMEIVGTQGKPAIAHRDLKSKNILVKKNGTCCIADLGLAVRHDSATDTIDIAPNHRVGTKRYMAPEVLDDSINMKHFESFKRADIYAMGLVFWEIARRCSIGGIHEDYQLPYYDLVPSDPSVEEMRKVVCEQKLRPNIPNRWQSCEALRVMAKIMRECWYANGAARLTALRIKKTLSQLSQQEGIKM
Briefly: Selectivity interaction (KinomeScan (DiscoverX)) EUB0000092b TGFBR1. To be noted: at 10 µM.

The target of data set [7] is Misshapen-like kinase 1 (Homo sapiens, UniProt Q8N4C8). In words: Selectivity interaction (KinomeScan (DiscoverX)) EUB0001049a MINK1. Conditions: at 1 µM.
For data set [8], the target named is Ribosomal protein S6 kinase alpha-2 (Homo sapiens) (UniProt Q15349). In words: Selectivity interaction (KinomeScan (DiscoverX)) EUB0000695a RPS6KA2. Conditions: at 100 nM.
Chain of Ribosomal protein S6 kinase alpha-2 (Homo sapiens) (Q15349 whole entry): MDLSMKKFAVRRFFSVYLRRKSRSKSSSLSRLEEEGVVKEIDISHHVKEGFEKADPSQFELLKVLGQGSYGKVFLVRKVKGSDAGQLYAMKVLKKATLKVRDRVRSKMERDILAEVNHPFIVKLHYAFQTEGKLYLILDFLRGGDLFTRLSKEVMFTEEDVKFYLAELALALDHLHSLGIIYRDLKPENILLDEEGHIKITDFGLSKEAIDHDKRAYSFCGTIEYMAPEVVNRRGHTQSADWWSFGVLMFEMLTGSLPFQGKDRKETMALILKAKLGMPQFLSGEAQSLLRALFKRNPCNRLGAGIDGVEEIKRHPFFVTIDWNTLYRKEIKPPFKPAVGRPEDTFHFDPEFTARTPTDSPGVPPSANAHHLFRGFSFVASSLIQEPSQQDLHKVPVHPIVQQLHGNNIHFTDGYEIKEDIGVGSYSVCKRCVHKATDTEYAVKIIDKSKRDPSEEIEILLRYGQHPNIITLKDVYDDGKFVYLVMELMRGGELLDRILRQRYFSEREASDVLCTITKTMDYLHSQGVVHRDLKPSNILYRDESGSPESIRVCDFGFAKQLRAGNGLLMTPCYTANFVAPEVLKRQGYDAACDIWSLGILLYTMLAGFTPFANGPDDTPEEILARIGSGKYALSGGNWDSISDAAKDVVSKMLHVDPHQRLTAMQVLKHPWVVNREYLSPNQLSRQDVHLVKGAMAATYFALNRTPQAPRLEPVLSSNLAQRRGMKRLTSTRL
The target in data set [9] is Tyrosine-protein kinase JAK1 (Homo sapiens, UniProt P23458). Briefly: Selectivity interaction (KinomeScan (DiscoverX)) EUB0000045b JAK1. Conditions: at 10 µM.
In data set [10] the target is Platelet-derived growth factor receptor beta (Homo sapiens, UniProt P09619). Briefly: Selectivity interaction (KinomeScan (DiscoverX)) EUB0000229b PDGFRB. Conditions: at 10 µM.
Chain of Platelet-derived growth factor receptor beta (P09619 whole entry): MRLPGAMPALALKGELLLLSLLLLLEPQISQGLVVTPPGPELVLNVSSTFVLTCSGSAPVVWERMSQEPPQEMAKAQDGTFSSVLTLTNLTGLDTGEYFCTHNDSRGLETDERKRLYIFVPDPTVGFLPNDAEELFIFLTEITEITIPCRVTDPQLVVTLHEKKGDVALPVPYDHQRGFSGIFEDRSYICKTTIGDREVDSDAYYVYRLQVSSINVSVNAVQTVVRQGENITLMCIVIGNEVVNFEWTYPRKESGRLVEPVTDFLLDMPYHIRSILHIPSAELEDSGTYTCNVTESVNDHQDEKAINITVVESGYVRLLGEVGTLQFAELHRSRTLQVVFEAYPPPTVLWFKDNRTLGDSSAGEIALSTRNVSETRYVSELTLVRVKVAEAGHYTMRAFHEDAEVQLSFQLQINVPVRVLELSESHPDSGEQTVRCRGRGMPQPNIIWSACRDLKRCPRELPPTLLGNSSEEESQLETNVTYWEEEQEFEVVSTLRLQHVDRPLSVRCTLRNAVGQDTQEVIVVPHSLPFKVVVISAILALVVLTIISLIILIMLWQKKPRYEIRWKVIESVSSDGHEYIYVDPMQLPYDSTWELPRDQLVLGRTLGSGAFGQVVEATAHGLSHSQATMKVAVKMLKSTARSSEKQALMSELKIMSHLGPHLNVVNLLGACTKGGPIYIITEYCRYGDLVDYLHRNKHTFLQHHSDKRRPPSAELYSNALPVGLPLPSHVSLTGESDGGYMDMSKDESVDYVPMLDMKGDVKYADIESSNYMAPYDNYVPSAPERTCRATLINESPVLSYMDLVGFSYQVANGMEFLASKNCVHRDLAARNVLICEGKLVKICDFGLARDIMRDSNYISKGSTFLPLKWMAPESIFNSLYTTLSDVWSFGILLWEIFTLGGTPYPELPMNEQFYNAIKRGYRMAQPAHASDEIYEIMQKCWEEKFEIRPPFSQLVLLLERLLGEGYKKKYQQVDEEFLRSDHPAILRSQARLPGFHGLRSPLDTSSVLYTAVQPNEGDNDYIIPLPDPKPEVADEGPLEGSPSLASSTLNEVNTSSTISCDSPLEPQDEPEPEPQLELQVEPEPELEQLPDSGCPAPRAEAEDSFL
In data set [11] the target is Mu-type opioid receptor (Homo sapiens, UniProt P35372). In words: Selectivity interaction (GPCR panel (PDSP screen)) EUB0000311b OPRM1. To be noted: at 10 µM.
Chain of Mu-type opioid receptor (P35372 whole entry): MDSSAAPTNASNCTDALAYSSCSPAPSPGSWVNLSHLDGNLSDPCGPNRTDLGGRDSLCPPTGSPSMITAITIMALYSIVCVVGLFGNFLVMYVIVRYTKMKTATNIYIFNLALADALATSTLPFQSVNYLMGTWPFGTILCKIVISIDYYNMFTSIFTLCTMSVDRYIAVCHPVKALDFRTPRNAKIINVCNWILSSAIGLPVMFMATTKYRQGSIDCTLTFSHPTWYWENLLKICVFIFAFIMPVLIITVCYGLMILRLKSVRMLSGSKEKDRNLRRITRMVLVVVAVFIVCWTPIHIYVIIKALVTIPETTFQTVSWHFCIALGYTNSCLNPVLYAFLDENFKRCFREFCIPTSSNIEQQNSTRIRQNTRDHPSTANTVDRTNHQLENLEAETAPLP
Data set [12] concerns the target Glycogen synthase kinase-3 beta (Homo sapiens, UniProt P49841). Briefly: Selectivity interaction (Kinase panel (literature)) EUB0001199aCl GSK3B. Conditions: at 1 µM.
The target in data set [13] is Ribosomal protein S6 kinase alpha-4 (Homo sapiens) (UniProt O75676). Briefly: Selectivity interaction (KinomeScan (DiscoverX)) EUB0000618a RPS6KA4. Conditions: at 10 µM.
The target of data set [14] is T3, Serine/threonine-protein kinase ULK1 (Homo sapiens) (UniProt O75385).
T3 sequence (whole entry): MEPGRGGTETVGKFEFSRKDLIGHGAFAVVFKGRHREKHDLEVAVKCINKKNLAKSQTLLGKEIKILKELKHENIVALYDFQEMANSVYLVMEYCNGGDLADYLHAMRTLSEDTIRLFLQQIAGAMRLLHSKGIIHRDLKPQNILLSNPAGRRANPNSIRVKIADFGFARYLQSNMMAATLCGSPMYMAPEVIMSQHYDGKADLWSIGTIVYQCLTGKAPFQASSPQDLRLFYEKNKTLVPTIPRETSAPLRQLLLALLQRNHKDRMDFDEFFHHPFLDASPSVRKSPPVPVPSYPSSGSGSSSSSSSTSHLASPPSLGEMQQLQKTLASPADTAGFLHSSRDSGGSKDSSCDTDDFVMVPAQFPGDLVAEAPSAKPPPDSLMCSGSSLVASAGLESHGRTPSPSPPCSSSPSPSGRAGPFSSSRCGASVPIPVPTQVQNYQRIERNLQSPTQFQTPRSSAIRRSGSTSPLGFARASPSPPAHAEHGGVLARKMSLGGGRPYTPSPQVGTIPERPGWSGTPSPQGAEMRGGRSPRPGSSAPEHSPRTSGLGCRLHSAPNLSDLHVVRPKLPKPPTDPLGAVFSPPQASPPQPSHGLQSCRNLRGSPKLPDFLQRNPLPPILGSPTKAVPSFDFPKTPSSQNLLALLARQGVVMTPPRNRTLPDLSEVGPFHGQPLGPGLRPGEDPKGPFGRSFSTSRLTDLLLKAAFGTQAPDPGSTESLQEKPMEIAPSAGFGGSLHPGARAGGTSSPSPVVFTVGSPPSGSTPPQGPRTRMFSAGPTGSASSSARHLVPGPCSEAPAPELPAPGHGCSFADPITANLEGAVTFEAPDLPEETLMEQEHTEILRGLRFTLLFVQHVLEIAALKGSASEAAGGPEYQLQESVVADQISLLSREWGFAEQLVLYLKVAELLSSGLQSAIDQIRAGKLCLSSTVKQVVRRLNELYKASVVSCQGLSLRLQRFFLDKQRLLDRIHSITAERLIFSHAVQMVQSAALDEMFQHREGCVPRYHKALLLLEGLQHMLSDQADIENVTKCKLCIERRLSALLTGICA
In words: Selectivity interaction (KinomeScan (DiscoverX)) EUB0000618a ULK1. To be noted: at 10 µM.

Chain of Protein kinase C eta type (Homo sapiens) (P24723 whole entry): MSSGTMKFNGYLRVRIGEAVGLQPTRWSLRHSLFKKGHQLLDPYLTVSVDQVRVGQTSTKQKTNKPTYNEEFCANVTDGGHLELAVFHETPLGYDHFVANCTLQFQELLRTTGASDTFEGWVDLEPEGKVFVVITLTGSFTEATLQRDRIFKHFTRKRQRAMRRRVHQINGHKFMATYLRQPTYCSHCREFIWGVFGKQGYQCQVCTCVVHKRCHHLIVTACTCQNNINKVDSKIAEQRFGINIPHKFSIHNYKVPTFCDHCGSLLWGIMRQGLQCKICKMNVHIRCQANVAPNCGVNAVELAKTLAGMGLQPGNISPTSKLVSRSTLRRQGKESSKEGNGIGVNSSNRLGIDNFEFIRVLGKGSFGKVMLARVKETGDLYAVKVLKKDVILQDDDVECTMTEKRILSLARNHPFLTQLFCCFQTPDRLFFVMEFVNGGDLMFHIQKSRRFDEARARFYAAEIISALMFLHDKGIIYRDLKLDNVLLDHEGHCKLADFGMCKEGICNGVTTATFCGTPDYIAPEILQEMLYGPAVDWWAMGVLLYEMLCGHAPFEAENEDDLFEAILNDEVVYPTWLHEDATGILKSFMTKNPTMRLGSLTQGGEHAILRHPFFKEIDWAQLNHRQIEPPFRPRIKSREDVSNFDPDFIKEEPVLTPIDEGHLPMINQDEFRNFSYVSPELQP
Chain of KCNQ1 (P51787 whole entry): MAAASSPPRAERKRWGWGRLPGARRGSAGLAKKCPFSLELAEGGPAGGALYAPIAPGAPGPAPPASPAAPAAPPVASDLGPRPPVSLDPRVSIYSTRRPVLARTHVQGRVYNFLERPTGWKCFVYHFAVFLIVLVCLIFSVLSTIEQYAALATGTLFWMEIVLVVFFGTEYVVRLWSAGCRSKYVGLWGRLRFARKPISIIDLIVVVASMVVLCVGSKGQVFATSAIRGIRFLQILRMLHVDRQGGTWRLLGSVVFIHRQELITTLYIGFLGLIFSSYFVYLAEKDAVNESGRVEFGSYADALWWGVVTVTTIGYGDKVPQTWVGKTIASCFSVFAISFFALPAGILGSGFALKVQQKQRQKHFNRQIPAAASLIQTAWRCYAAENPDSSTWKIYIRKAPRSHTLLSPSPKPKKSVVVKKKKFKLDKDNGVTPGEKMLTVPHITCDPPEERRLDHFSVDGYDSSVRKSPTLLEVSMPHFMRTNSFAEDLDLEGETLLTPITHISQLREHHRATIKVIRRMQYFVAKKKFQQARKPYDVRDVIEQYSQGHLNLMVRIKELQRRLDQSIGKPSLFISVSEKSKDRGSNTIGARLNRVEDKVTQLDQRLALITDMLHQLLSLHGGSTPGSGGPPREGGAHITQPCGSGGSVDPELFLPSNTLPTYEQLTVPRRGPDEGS

In the case of `CCn1c(-c2nc3cc(C(=O)N4CCCC(N)C4)ccc3n2C)cc2ccccc21` (stereo unspecified), the XC50 in data set [1] was over 25.1 µM.
In the case of `C=CC(=O)Nc1cccc(C(=O)Nc2ccc(Nc3cc(-c4[nH]c(SC)nc4C)ccn3)cc2)c1`, the % of control in data set [2] (at 1 µM) was 91%; in [2] (at 5 µM), 78%; in data set [3] (at 1 µM), 74%; in data set [3] (at 5 µM), 56%.
On to `CCN(CC)CCCCNc1ncc2cc(-c3cc(OC)cc(OC)c3)c(NC(=O)NC(C)(C)C)nc2n1`, for which, in [4], the % of control came out at 100%.
`Nc1cnc(N2CCc3cc(S(=O)(=O)Nc4c(F)cc(Cl)cc4F)cc(N4CCCC4=O)c32)nc1` [TP-020n] showed a % of control in [5] of 100%.
Turning to `CCC(=O)N1CCN(c2ccc(-n3c(=O)ccc4cnc5ccc(-c6cnc7ccccc7c6)cc5c43)cc2C(F)(F)F)CC1`, in [6], the % of control was determined as 70%.
Compound `COc1cc(Nc2nc(C)cc(-c3cnn4nc(OC)ccc34)n2)cc(C(F)(F)F)c1` yielded a % of control in data set [7] of 79%.
Compound `Cc1cc(F)c(C(=O)Nc2cccc(-c3nncn3C(C)C)n2)cc1-n1cnc(C2CC2)c1` displayed a % of control in [8] of 87%.
Regarding `C=CC(=O)Nc1cc(-n2c(=O)ccc3cnc4ccc(-c5ccc(NS(C)(=O)=O)cc5)cc4c32)ccc1C`, the % of control in [9] was found to be 93%.
`COc1cc(N(C)c2ccnc3ccc(C(F)(F)F)cc23)cc(OC)c1OC` showed a % binding in [10] of 98%.
With `CCc1ccccc1C(=O)Nc1n[nH]c2c(C)c(F)c(C3C(C#N)=C(C)N(C)C(C)=C3C#N)cc12` [BAY-3827], the % of inhibition in [11] was 30.5%.
In the case of `CN1Cc2nccc(-c3cn(C)nc3-c3ccc(F)cc3)c2C1=O`, the % of inhibition in data set [12] was found to be 1%.
For the compound `O[C@H]1CC[C@H](Nc2ncc3nc(Nc4c(F)cc(F)cc4F)n([C@H]4CCOC4)c3n2)CC1`, the % of control was 100% in data set [13] and 84% in [14].

Source of the values: ChEMBL document CHEMBL5465560, “Selectivity Literature for EUbOPEN Chemogenomic Library” (2024).
